# Test results reported in patent publication US20240315992A1, “AMINOXY ACID-BASED ANTIBACTERIAL COMPOUNDS AND METHODS THEREOF” (The University of Hong Kong, priority 2023, published 2024).
# Columns and labels:
# [1] = tested on: Staphylococcus aureus strain USA300-LAC; experiment: Non-lethal bacteremia model, bacteria loads in organs; type: in vivo, Balb/c mice; settings: 10 mg/kg/day intraperitoneal, 4 days
# Description: FIG. 9 are the bar graphs showing compound 8 and compound 35 reduce bacteria loads in different organs of the mice infected by Staphylococcus aureus. Grubb's test was performed to test for outliers. Statistical analysis was performed with two-sided paired t test. (*p<0.05).
# Staphylococcus aureus strain USA300-LAC were cultured to the early exponential phase of growth, washed twice with sterile phosphate-buffered saline solution (PBS), and resuspended in PBS at 5×10^6 CFU/200 μL for non-lethal bacteremia model. The female Balb/c mice, 6-8 weeks, were infected intravenously (i.v.) through the tail vein with Staphylococcus aureus and randomized into three groups (N=14 for vehicle; N=12 for compound 8 and compound 35 respectively). One hour after infection, mice received intraperitoneal injections of compound 8 or compound 35 (10 mg/kg/day) or an injection of buffer (PBS with 2.5% DMSO and 2% Tween-80) as the control. The compound and injection buffer treatments were performed twice per day at 12-h intervals. The challenged mice were monitored for 4 days, at which point all the remaining mice were sacrificed. The CFU of S. aureus were determined in heart, liver, kidney and lung by plating in series dilution. Grubb's test was performed to test for outliers. Statistical analysis was performed with two-sided paired t test. (*p<0.05).
# [2] = tested on: Staphylococcus aureus ATCC 29213 cytoplasm pH; experiment: Cytoplasmic pH measurement with pHluorin; type: cell-based; settings: pHluorin fluorescence ratio, 5 minutes incubation
# Description: Cytoplasm pH was monitored by pH sensitive fluorescent protein over time (s). 2 μM nigericin (Nig) and 2 μM valinomycin (Val) were used as positive control and 1% DMSO was used as negative control. Data represented the mean±S.D. of biological triplicates. Statistical analysis was performed by one-way ANOVA with Dunnett's post-test to calculate p-values adjusted for multiple comparisons with DMSO negative control (*p<0.05; **p<0.01; ***p<0.001).
# To construct pHluorinsarA plasmid, pGLsarA plasmid vector was PCR amplified using primers pGL-f (CTGCAGGCATGCAAG; SEQ ID NO: 1) and pGL-r ([…]: SEQ ID NO: 2). […]
# A pHlourin standard curve correlating pH and fluorescence ratio was constructed. Briefly, the emission at 510 nm was monitored with excitation wavelengths at 410 nm and 470 nm simultaneously following previously described protocol^18 Overnight culture Staphylococcus aureus ATCC 29213 was sub-cultured 1:100 in fresh CAMH medium and regrown to exponential phase. […] Fluorescence ratio (Excitation wavelength 410 nm/470 nm; emission wavelength 510 nm) was then measured in 1 mL cuvette using Hitachi F-4500 Florescence Spectrometer and plotted against the pH of the buffer. […]
# [3] = tested on: Staphylococcus aureus ATCC29213 Δatl, ΔSAOUHSC_02855 and ΔSAOUHSC_01895; experiment: Bactericidal activity in autolysin deletion mutants; type: cell-based; settings: 4×MIC (12.5 μM), 24 hours, compared to wild type
# Description: FIG. 15 is the bar graph showing the reduction of bactericidal effect of compound 8 in autolysin deletion mutants of Staphylococcus aureus. Staphylococcus aureus ATCC29213 WT, Staphylococcus aureus ATCC 29213, Δatl, ΔSAOUHSC_02855 and ΔSAOUHSC_01895 was incubated with 4×MIC compounds 8 for 24 hours. 10 μL bacteria were serial diluted and spotted on Mueller Hinton Agar. Colonies were enumerated next day. Data represented the mean±S.D. of biological triplicates. Statistical analysis was performed by unpaired t test compared to wild type in 95% confidence interval (*p<0.05; **p<0.01).
# Target DNA upstream 1 kb and downstream 1 kb were PCR amplified from Staphylococcus aureus genomic DNA. The two DNA inserts were ligated to fuse upstream and downstream DNA fragments by overlap PCR. The ligated PCR product was cloned to pKOR1 plasmid using Vazyme ClonExpress®II One Step Cloning Kit, and transformed into Escherichia. coli top 10, plated on LBA containing ampicillin (100 μg/mL), and incubated under 30° C. overnight. Colony PCR was performed with Sanger sequencing for selection of transformants. The plasmid DNA was extracted and subsequently transformed into Staphylococcus aureus RN4220 and ATCC 29213 in TSA containing chloramphenicol (10 μg/mL). […]
compound,measurement,setting,value
CC(C)C[C@H](ONC(=O)[C@@H](COCc1ccccc1)ONC(=O)c1cc(C(F)(F)F)cc(C(F)(F)F)c1)C(=O)Nc1ccccc1 [Compound 8],bacteria load in heart,[1],can reduce the bacteria load
same,bacteria load in lung,[1],can reduce the bacteria load
same,cytoplasm pH,[2],can acidify Staphylococcus aureus cytoplasm
same,bactericidal activity in autolysin deficient Staphylococcus aureus,[3],diminished bactericidal activity
